# Measurements reported in the supplement of paper PMC11061612.
# Legend:
# Assay in all cases: Bliss excess, mean over the matrix (fraction); higher = more synergy
# [1] = test system: SK-MM-2 (Plasma Cell Myeloma)
# Method in brief: (§1)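 After 24 hours at 37°C and 5% CO2 in 1536-well plates, cells in DMEM/F12 or RPMI plus 10% FBS received two-drug dose matrices for 72 hours. Viability came from CellTiter-Glo 2.0 luminescence and was scaled as inhibition, anchored at 0 by vehicle wells and at 1 by blank wells. Combination Emax is taken as the second-highest inhibition in the matrix, and Bliss excess as the observed combination effect less EA + EB − EA·EB, with EA and EB the single-agent effects.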
# [2] = test system: RT4 (Bladder Carcinoma)
# Method in brief: as §1
# [3] = test system: PC-14 (Lung Adenocarcinoma)
# Method in brief: as §1
# [4] = test system: HSC-3 (Oral Cavity Carcinoma)
# Method in brief: as §1
SMILES,Bliss excess [1],Bliss excess [2],Bliss excess [3],Bliss excess [4]
"COc1cccc(OCCCN)c1-c1cc(Nc2cnc(C#N)cn2)n[nH]1 [Prexasertib] + O=C(c1cc(Cc2n[nH]c(=O)c3ccccc23)ccc1F)N1CCN(C(=O)C2CC2)CC1 [Olaparib] (first compound max 1 µM, 7x7, partner max 10 µM)",-0.011,0.0044,-0.0478,-0.0093
"CN(CCO)CC[C@H](CSc1ccccc1)Nc1ccc(S(=O)(=O)NC(=O)c2ccc(N3CCC([C@@H](O)c4ccccc4-c4ccc(Cl)cc4)CC3)cc2)cc1S(=O)(=O)C(F)(F)F [AZD4320] + CCN(CCO)CCCOc1ccc2c(Nc3cc(CC(=O)Nc4cccc(F)c4)[nH]n3)ncnc2c1 [AZD2811] (first compound max 1 µM, 7x7, partner max 1 µM)",-0.0113,0.163,0.0099,0.0257
"CC1(C)CCC(CN2CCN(c3ccc(C(=O)NS(=O)(=O)c4ccc(NCC5CCOCC5)c([N+](=O)[O-])c4)c(Oc4cnc5[nH]ccc5c4)c3)CC2)=C(c2ccc(Cl)cc2)C1 [Venetoclax] + CN(C)CCCOc1ccc(-c2ccc3ncc4c(c3c2)n(C2CCOCC2)c(=O)n4C)cn1 [AZD0156] (first compound max 1 µM, 7x7, partner max 1 µM)",-0.0129,-0.0259,0.0043,0.012
"CC1(C)CCC(CN2CCN(c3ccc(C(=O)NS(=O)(=O)c4ccc(NCC5CCOCC5)c([N+](=O)[O-])c4)c(Oc4cnc5[nH]ccc5c4)c3)CC2)=C(c2ccc(Cl)cc2)C1 [Venetoclax] + Cn1cnc2c(F)c(Nc3ccc(Br)cc3Cl)c(C(=O)NOCCO)cc21 [Selumetinib] (first compound max 1 µM, 7x7, partner max 3 µM)",0.0187,-0.0521,-0.0229,-0.0043
"CN(C)CCCOc1ccc(-c2ccc3ncc4c(c3c2)n(C2CCOCC2)c(=O)n4C)cn1 [AZD0156] + C[C@@H]1COCCN1C2=NC(=NC(=C2)C3(CC3)[S@](=N)(=O)C)C4=C5C=CNC5=NC=C4 [AZD6738] (first compound max 1 µM, 7x7, partner max 10 µM)",-0.0524,-0.0408,0.0043,-0.0032
"Cc1c2c(nn1C)CSCc1cc(n(C)n1)CSc1cc(c3ccccc3c1)OCCCc1c(C(=O)O)n(C)c3c-2c(Cl)ccc13 [AZD5991] + CC1(C)CCC(CN2CCN(c3ccc(C(=O)NS(=O)(=O)c4ccc(NCC5CCOCC5)c([N+](=O)[O-])c4)c(Oc4cnc5[nH]ccc5c4)c3)CC2)=C(c2ccc(Cl)cc2)C1 [Venetoclax] (first compound max 1 µM, 7x7, partner max 1 µM)",0.0209,0.135,0.0054,0.005
"Cc1cc2ncnn2cc1Nc1ncc2c(n1)n(C1CCOCC1)c(=O)n2C [AZD7648] + CCN(CCO)CCCOc1ccc2c(Nc3cc(CC(=O)Nc4cccc(F)c4)[nH]n3)ncnc2c1 [AZD2811] (first compound max 10 µM, 7x7, partner max 1 µM)",-0.0115,0.0534,0.0257,0.0012
"C=CCn1c(=O)c2cnc(Nc3ccc(N4CCN(C)CC4)cc3)nc2n1-c1cccc(C(C)(C)O)n1 [AZD1775] + C[C@@H]1COCCN1C2=NC(=NC(=C2)C3(CC3)[S@](=N)(=O)C)C4=C5C=CNC5=NC=C4 [AZD6738] (first compound max 1 µM, partner max 10 µM)",-0.0211,-0.0068,-0.005,0.0038
"Cc1c2c(nn1C)CSCc1cc(n(C)n1)CSc1cc(c3ccccc3c1)OCCCc1c(C(=O)O)n(C)c3c-2c(Cl)ccc13 [AZD5991] + CCN(CCO)CCCOc1ccc2c(Nc3cc(CC(=O)Nc4cccc(F)c4)[nH]n3)ncnc2c1 [AZD2811] (first compound max 1 µM, 7x7, partner max 1 µM)",-0.0451,0.11,0.0381,0.0617
"Cc1c2c(nn1C)CSCc1cc(n(C)n1)CSc1cc(c3ccccc3c1)OCCCc1c(C(=O)O)n(C)c3c-2c(Cl)ccc13 [AZD5991] + Cc1cc2ncnn2cc1Nc1ncc2c(n1)n(C1CCOCC1)c(=O)n2C [AZD7648] (first compound max 1 µM, 7x7, partner max 10 µM)",0.0087,-0.0301,-0.0088,-0.0448
"Cc1c2c(nn1C)CSCc1cc(n(C)n1)CSc1cc(c3ccccc3c1)OCCCc1c(C(=O)O)n(C)c3c-2c(Cl)ccc13 [AZD5991] + CN(C)CCCOc1ccc(-c2ccc3ncc4c(c3c2)n(C2CCOCC2)c(=O)n4C)cn1 [AZD0156] (first compound max 1 µM, 7x7, partner max 1 µM)",0.0254,0.0149,0.0236,0.0527
"Cc1cc2ncnn2cc1Nc1ncc2c(n1)n(C1CCOCC1)c(=O)n2C [AZD7648] + CN(C)CCCOc1ccc(-c2ccc3ncc4c(c3c2)n(C2CCOCC2)c(=O)n4C)cn1 [AZD0156] (first compound max 10 µM, 7x7, partner max 1 µM)",-0.0552,0.0212,0.0186,0.0174
"CCN(CCO)CCCOc1ccc2c(Nc3cc(CC(=O)Nc4cccc(F)c4)[nH]n3)ncnc2c1 [AZD2811] + C[C@@H]1COCCN1C2=NC(=NC(=C2)C3(CC3)[S@](=N)(=O)C)C4=C5C=CNC5=NC=C4 [AZD6738] (first compound max 1 µM, 7x7, partner max 10 µM)",-0.0732,-0.0318,-0.0492,-0.0195
"C[C@@H]1COCCN1c1cc(C2([S@](C)(=N)=O)CC2)nc(-c2ccnc3[nH]ccc23)n1 [AZD6738] + O=C(c1cc(Cc2n[nH]c(=O)c3ccccc23)ccc1F)N1CCN(C(=O)C2CC2)CC1 [Olaparib] (first compound max 10 µM, 7x7, partner max 10 µM)",-0.0084,0.0357,0.0132,0.0043
"Cc1c2c(nn1C)CSCc1cc(n(C)n1)CSc1cc(c3ccccc3c1)OCCCc1c(C(=O)O)n(C)c3c-2c(Cl)ccc13 [AZD5991] + C[C@@H](Nc1cc(F)cc(F)c1)c1cc(C(=O)N(C)C)cc2c(=O)cc(N3CCOCC3)oc12 [AZD8186] (first compound max 1 µM, 7x7, partner max 3 µM)",-0.0419,0.0434,0.0129,-0.001
"CC1(C)CCC(CN2CCN(c3ccc(C(=O)NS(=O)(=O)c4ccc(NCC5CCOCC5)c([N+](=O)[O-])c4)c(Oc4cnc5[nH]ccc5c4)c3)CC2)=C(c2ccc(Cl)cc2)C1 [Venetoclax] + C[C@@H](Nc1cc(F)cc(F)c1)c1cc(C(=O)N(C)C)cc2c(=O)cc(N3CCOCC3)oc12 [AZD8186] (first compound max 1 µM, 7x7, partner max 3 µM)",0.024,-0.0208,-0.0169,-0.0286
"COc1nnc2ccc(N3CCC(c4ccc(OCCN5CCN(C)C(=O)[C@H]5C)cc4)CC3)nn12 [AZD5153] + CN(CC[C@H](CSC1=CC=CC=C1)NC2=C(C=C(C=C2)S(=O)(=O)NC(=O)C3=CC=C(C=C3)N4CCC(CC4)[C@H](C5=CC=CC=C5C6=CC=C(C=C6)Cl)O)S(=O)(=O)C(F)(F)F)CCO [AZD4320] (first compound max 1 µM, 7x7, partner max 1 µM)",,0.0826,0.0111,0.0794
"CC(=O)c1c(C)c2cnc(Nc3ccc(N4CCNCC4)cn3)nc2n(C2CCCC2)c1=O [Palbociclib] + CN(CC[C@H](CSC1=CC=CC=C1)NC2=C(C=C(C=C2)S(=O)(=O)NC(=O)C3=CC=C(C=C3)N4CCC(CC4)[C@H](C5=CC=CC=C5C6=CC=C(C=C6)Cl)O)S(=O)(=O)C(F)(F)F)CCO [AZD4320] (first compound max 10 µM, 7x7, partner max 1 µM)",,-0.0409,-0.0307,-0.0254
"C[C@@H](c1ccc2nccn2c1)n1nnc2ncc(-c3cnn(C)c3)nc21 [Savolitinib] + CN(CC[C@H](CSC1=CC=CC=C1)NC2=C(C=C(C=C2)S(=O)(=O)NC(=O)C3=CC=C(C=C3)N4CCC(CC4)[C@H](C5=CC=CC=C5C6=CC=C(C=C6)Cl)O)S(=O)(=O)C(F)(F)F)CCO [AZD4320] (first compound max 1 µM, 7x7, partner max 1 µM)",,-0.0284,0.0011,-0.0152
